{"source": "patent US20090203877A1", "about": "“X-RAY-DENSE CONJUGATE” (Eberhard-Karls-Universitaet Tuebingen Universitaetsklinkum, priority 2006, published 2009)", "key": {"[1]": {"system": "human malignant U373 glioma cells", "assay": "Cell viability / cell death (MTT test, propidium iodide, annexin-V-Alexa 568 binding, FACS scatter morphology)", "conditions": "260 μM in 0.1% DMSO/PBS, 20 min, substance alone", "experimental": "Human malignant U373-glioma cells were grown to 70% confluency in RPMI-1640 Ready Mix Medium containing L-Glutamine and 10% FBS-Gold (PAA laboratories, Pasching, Austria) at 37° C., 5% CO2 (vol/vol), in 4-well-plates (NUNC, Wiesbaden, Germany) with about 300,000 cells pro well. […] After this, the cells were washed three times with buffer and then incubated with Ready Mix Medium again. Cell viability was then assessed by the addition of methyl-thiazoyl-tetrazolium (MTT) salt (Sigma-Aldrich, Germany) at a concentration of 15 mg/ml. After 20 minutes, the production of formazan was investigated. When blue formazan granules were detected, propidium iodine (PI) was added to the medium (1 μM PI; Molecular Probes, Eugene, Oreg., USA) to detect cells with damaged cell membranes. […] Pictures were taken with a 3-CCD color video camera (MC3254P, Sony, Japan) and the Axiovision Software (Carl Zeiss, Jena, Germany). The intensity of cell fluorescence was recorded at the exposure time necessary for the production of the fluorescence images.\nAfter imaging, Accutase™ (PAA laboratories, Pasching, Austria) was added to the wells to achieve detachment of the cells for further FACS analysis. Fluorescence was measured in a Becton Dickinson FACSCalibur. A total of 20,000 events per sample were analyzed. The investigations were performed in triplicate.\nA sample of cells from each Eppendorf tube was subjected to the MTT test (described under 1.4) to determine microscopically whether the cells were viable. In vitro CT of the cell pellets was performed with a Somatom Sensation 16 (Siemens) which is used for routine clinical investigations.\nCells were incubated for 20 minutes with each of the conjugates dissolved in 0.1% DMSO/PBS at 260 μm. The cells were also incubated with TIBA and both of the non-TIBA-containing conjugates (3 and 4) separately in 0.1% DMSO/OBS at 260 μm. Both TIBA and the conjugates were dissolved in 0.1% DMSO/PBS at 260 μm for incubation due to the insolubility of TIBA (but not the conjugates) in pure PBS. As controls, the cells were incubated with PBS alone, 0.1% DMSO/PBS alone, and TIBA alone (260 μm in 0.1% DMSO/PBS).\nThe detection of phosphatidyl serine in the outer membrane leaflet of apoptotic cells was performed with the Annexin-V-Alexa™-568-reagent according to manufacturer's protocol (Roche Molecular Biochemicals, Indianapolis, USA). The confocal laser-scanning microscopy was performed on an inverted LSM 510 laser-scanning microscope (Carl Zeiss, Jena, Germany) (objectives: LD Achroplan 40×0.6, Plan Neofluar 20×0.50, 40×0.75). For fluorescence excitation, the 488 nm line of an argon-ion laser and the […] line of a helium-neon laser with appropriate beam splitters and barrier filters were used for FITC and Alexa respectively. Superimposed images of FITC- and Alexa-stained samples were created by overlaying coincident views. All measurements were performed on living, non-fixed cells.\nHuman malignant LN18 and U373 glioma cells were cultivated in four-well plates (NUNC, Wiesbaden, Germany) (about 300,000 cells per well) as described under 1.5. […] The cells were also coincubated either with CIBA, FIBA or TBPI as well as the NLS-FITC conjugate 3 (each 260 μM). As a control cells were used which were only incubated either with CIBA, FIBA or TBPI (260 μM in PBS) alone. After the incubation the cells were washed three times with PBS and in the following again incubated in Ready Mix Medium. The FITC-labelled conjugates and the Alexa-Annexin for the detection of phosphatidylserine as a signal of the cell death were localized with the confocal laser microscopy (CLSM) as in 1.6.1. All measurements were performed on living cells."}, "[2]": {"system": "human malignant U373 glioma cells", "assay": "Computer tomography, signal density of cell pellets", "assay_type": "cell-based", "conditions": "260 μM, 20 min", "experimental": "For CT and FACS human U373 glioma cells were grown under the same conditions in 75 cm^2 culture flasks (Corning Costar, Bodenheim, Germany) (70% confluency). Accutase™ (PAA laboratories, Pasching, Austria) was added to achieve detachment of the cells which were harvested and subsequently aliquoted into Eppendorf tubes (6×10^6 cells per tube). As in the investigations performed by fluorescence microscopy, the cells in the first tube served as a control (PBS only). The cells in the other tubes were incubated with 260 μM Ultravist, 260 μM TIBA in PBS and 26 μM, 260 μM and 2.6 mM conjugates 1-4 in PBS. After a 20 minute incubation period at 37° C. in an atmosphere of 5% CO2, the cells were washed three times in PBS and centrifuged at 800 rpm for 5 minutes.\nThe inner ear spiral CT protocol consisted of: tube voltage 120 KV, effective mAs 550, time of imaging TI: 1.5, SL 0.75/0.75/4.5, FOV: 50 0/52, kernel: U70, window: intervertebral disc.\n3D-images were obtained using InSpace Software (Syngo CT 2006G) (Siemens AG, Erlangen, Germany).\nAfter an incubation of 20 minutes at 37° C./5% CO2 the cells were washed three times with PBS buffer and centrifuged at 800 rpm (rounds per minute) for 5 minutes. The fluorescence was measured in Becton Dickinson FACSCalibur as described under 1.4. The computer tomography was performed as described under 1.5.1. The examinations were repeated two times. […]\nAn Orbita CT spiral was used: tube voltage 120 KV, effective mAs 550, time of imaging TI: 1.5, SL 0.75/0.75/4.5, FOV: 50 0/52, GT: 0.0, kernel: U70, window: intervertebral disc. 3D images were made with the InSpace Software (Syngo CT 2006G) (Siemens AG, Erlangen, Germany). […]"}, "Solubility": {"assay": "Solubility", "assay_type": "physicochemical", "conditions": "260 μM"}, "[3]": {"conditions": "cited from earlier work"}}, "note": "Entries after “also recorded” stand apart in the source; their conditions may differ.", "data": [{"smiles": "O=C(O)c1cc(I)cc(I)c1I", "note": "[TIBA, 2,3,5-triiodobenzoic acid, reference compound]", "values": [{"measurement": "binding of annexin-V-Alexa 568 reagent (phosphatidyl serine) / cytotoxic effects", "setting": "[1]", "result": "did not result in binding; also recorded: did not appear to produce any cytotoxic effects"}, {"measurement": "CT signal density of cell pellets", "setting": "[2]", "result": "only low signal density values; also recorded: did not result in any increase in signal density"}, {"measurement": "solubility in pure PBS", "setting": "Solubility", "result": "insolubility"}, {"measurement": "solubility in water", "setting": "[3]", "result": "does not dissolve in water"}]}]}
